Values of other authors as cited in patent publication US20150010509A1 (priority 2012, published 2015).
“Also recorded” adds a separate entry of the source. Read-outs that look alike come from different tables or passages of the source.

Key:
[1] = test system: MDA-MB-231 human breast cancer cells; conditions: SCID mice, cited from earlier work
[2] = test system: plasma cytokines, kynurenine, tryptophan; conditions: cited from earlier work
[3] = molecular target: T1, IDO (indoleamine 2,3-dioxygenase) (Homo sapiens, UniProt P14902); conditions: cited from earlier work
T1 construct: freshly isolated human peripheral blood mononuclear cells (PBMC); endogenous in cells; host or cells: freshly isolated human PBMC stimulated with PHA or Con A

[4] = test system: EMT6 mouse mammary tumor cells; conditions: CaPterin suspension 7 mg/kg/day oral, Balb/c mice, cited from earlier work
[5] = test system: human peripheral blood mononuclear cells (PBMC); conditions: at the concentrations tested; cited from earlier work
[6] = test system: human peripheral blood mononuclear cells (PBMC); conditions: cited from earlier work
[7] = test system: MDA-MB-231 human breast cancer cells; conditions: cited from earlier work
[8] = test system: mammary gland adenocarcinomas; conditions: CaPterin suspension 7 mg/kg/day, oral gavage, seven days; C3H/HeN-MTV+ female mice; cited from earlier work
[9] = test system: MIP-1β, inducible nitric oxide synthase 2, IDO gene expression; conditions: infected human monocytes; cited from earlier work
M. bovis BCG = conditions: cited from earlier work
hepatitis B virus (HBV) = conditions: cited from earlier work
[10] = test system: serum kyn/trp, MCP-1, GM-CSF; conditions: DCP per os 14 days; regression p=0.001; cited from earlier work
[11] = cited from earlier work
[12] = stepwise regression on CaPterin dose, p=0.047
[13] = Unstimulated PBMC + 200 μg/ml CaPterin

T1 sequence (P14902 whole entry): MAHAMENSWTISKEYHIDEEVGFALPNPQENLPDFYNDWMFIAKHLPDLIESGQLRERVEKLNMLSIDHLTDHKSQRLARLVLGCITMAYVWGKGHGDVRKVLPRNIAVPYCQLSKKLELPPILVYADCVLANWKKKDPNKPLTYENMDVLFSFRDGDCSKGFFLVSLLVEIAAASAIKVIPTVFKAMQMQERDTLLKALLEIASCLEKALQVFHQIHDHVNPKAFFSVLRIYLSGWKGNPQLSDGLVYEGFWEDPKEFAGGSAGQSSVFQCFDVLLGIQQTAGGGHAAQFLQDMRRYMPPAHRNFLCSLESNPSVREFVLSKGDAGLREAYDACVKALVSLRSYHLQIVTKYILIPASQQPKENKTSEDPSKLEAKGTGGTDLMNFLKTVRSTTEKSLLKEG

## Nc1nc2c3c(ncc[n+]3[Ca][O]2)n1
[1]; 13, 20 and 26 mg/kg CaPterin, oral gavage Monday through Friday for 75 days
  antitumor efficacy: no antitumor efficacy
[1]; CaPterin suspension over 75 days
  toxicity: no measurable toxicity
[2]; [12]
  plasma IFN-γ: decreases
  plasma IL-6: decreases
  plasma IL-10: increases
[2]; stepwise regression on CaPterin dose, p=0.047, confounded by tumor shrinkage
  plasma kynurenine: increases
[3]; PBMC + Con A + CaPterin
  Kynurenine decrease: ≦100-fold
  Tryptophan: 17.7 µM
[3]; PBMC + PHA + CaPterin
  Kynurenine decrease: ≦100-fold
  Tryptophan: 17.7 µM
[3]; [13]
  Kynurenine: did not significantly affect
  Kynurenine/Tryptophan: lower
  Tryptophan: did not significantly affect
[3]; mitogen-stimulated PBMC
  IDO activity / stimulation-induced tryptophan degradation: suppressed stimulation-induced tryptophan degradation in a dose-dependent manner
[4]; 15 days
  animal toxicity determined by decreased body weight: no measurable animal toxicity
[4]; once daily 15 days
  effect on tumor growth: no significant effect on tumor growth
[5]
  toxicity by exclusion method: no toxicity
[6]; PBMC
  neopterin excretion: suppressed
[6]; [13]
  Neopterin: did not influence this level
[7]; CaPterin 21 mg/(kg day), after 60 days of treatment, 5×10^6 cells, nude mice
  T/C: 37%
[7]; CaPterin suspension 7 mg/kg/day, oral gavage once daily 14 days, 5×10^6 cells, nude mice
  T/C after 14 days: 41%
[7]; CaPterin suspension 7 mg/kg/day, oral gavage, 14 days, nude mice
  treatment toxicity assessed by reductions in body weight: No treatment toxicity
[7]; mega-dosed by oral gavage 100 mg/(kg day) for up to 31 days
  toxicity (appreciable weight loss ≧10%): no observed toxicity
[8]
  ratio of Test tumor volumes to Control tumor volumes (T/C) at Day 7: 10%

## Nc1nc2nccnc2c(=O)[nH]1.[Ca] [(1:2 mol/mol) calcium pterin, calcium pterin]
[7]; (1:2 mol/mol) calcium pterin 25 mg/(kg day), 10×10^6 cells, 70-98 days of treatment
  T/C: 25%

## O.O.[Ca+2].[Cl-].[Cl-] [Calcium chloride dihydrate, calcium chloride dihydrate]
[7]; calcium chloride dihydrate 4.2 mg/(kg day), 10×10^6 cells, 70-98 days of treatment
  T/C: 25%

## Nc1nc([O-])c2nccnc2n1.Nc1nc([O-])c2nccnc2n1.[Ca+2] [DCP, dipterinyl calcium pentahydrate]
[9]
  C-C chemokine MIP-1β: induction
  IDO gene expression: suppressed
  inducible nitric oxide synthase 2: induction
[2]; DCP treated mice, regression p=0.003
  tumor growth relation to plasma cytokines (DCP/APCP regression): decreases with IL-12 and IL-4, and increases with IL-6
M. bovis BCG; DCP treatment of infected human monocytes
  viability of intracellular M. bovis BCG: significant reduction
M. bovis BCG; DCP treatment
  viability of extracellular M. bovis BCG: not extracellular
Hepatitis B virus (HBV); DCP 23 mg/(kg d) per os, 14 days
  inhibition of liver HBV DNA: 83%
Hepatitis B virus (HBV); DCP per os once daily 14 days, 2.3 to 23 mg/(kg d), female HBV mice
  liver HBV DNA measured by PCR: significant dose-response reduction; also recorded: decreased
[10]
  IDO activity, serum kyn/trp: decreased
  chemokine MCP-1: reduced
  serum GM-CSF: increased
[7]; DCP 23 mg/(kg d), 10×10^6 cells, 70-98 days of treatment
  T/C: 25%
[7]; DCP 69 mg/(kg d), 10×10^6 cells, 70-98 days of treatment
  T/C: 50%
[11]; 7 mg/(kg d) DCP orally in 0.4% carboxymethylcellulose, 21 days, female DIO C57BL/6J mice, p<0.05
  reduction of OGTT/AUC (area under OGTT curve): 50%
[11]; optimum dose 7 mg/(kg d) DCP, female DIO mice
  OGTT diabetic state: significantly improved

## CC(=O)O.CNC(=N)NCCC[C@H](N)C(=O)O [L-NMMA monoacetate]
M. bovis BCG; added to DCP-treated infected human monocytes
  effect on DCP inhibition of intracellular mycobacterial growth: reversed the inhibitory effects of DCP on intracellular mycobacterial growth

## Nc1nc2nccnc2c(=O)[nH]1 [Pterin, pterin]
[7]; pterin 21 mg/(kg day), nude mice
  antitumor activity: no antitumor activity

## CC(C)(C)C(=O)OCOP(=O)(COCCn1cnc2c(N)ncnc21)OCOC(=O)C(C)(C)C [adefovir dipivoxil]
Hepatitis B virus (HBV); ADV 10 mg/(kg day)
  inhibition of liver HBV DNA: ~83%
